# From patent US11779600B2, “Methods of treating or preventing alzheimer's disease and associated conditions” (CEDARS-SINAI MEDICAL CENTER, priority 2016, dated 2023)
# Assays:
# iNOS = iNOS expression in macrophages by quantitative ICC; assay type: cell-based, mouse; conditions: 24 hours treatment, then fAβ1-42 for 30 min; quantitative ICC (FIG. 16D)
# Experimental: (§1) To test amyloid-β phagocytosis by macrophage, in repeated experiments monocytes were isolated from the bone marrow of wild-type mice (n=18 mice) and differentiated into macro-phage by 7-day cultivation in complete RPMI-1640 medium (#21870; Life Technologies) with 10% serum and 20 ng/ml MCSF (#315-02; PeproTech). Bone marrow-derived macrophages (MΦBM) were generated from femurs and tibiae cultured for 6-7 days in complete RPMI 1640 medium (Life Technologies) with 10% FBS, 100 U/ml penicillin, 100 μg/ml streptomycin, 2 mM L-glutamine and 20 ng/ml MCSF (PeproTech). Primary cultures of macrophage were then plated at 1.2×10^5 cells per well (3-4 wells for each condition) in 24-well tissue-culture plates on glass cover-slips overnight. […] The fluorescent signal and its total area were determined and quantified by the conversion of individual images to greyscale and standardizing to baseline using histogram-based thresholds with NIH ImageJ software. […]
# The expression of inducible nitric oxide synthase (iNOS), a hallmark of the proinflammatory M1 macrophage phenotype, in different treatment groups was assessed next (FIG. 16C-16D). […] Quantitative ICC assays confirmed a significant ˜1.3-fold increase in iNOS expression by minocycline-treated macrophages, and a substantial 48% reduction in Aβ^1-42 phagocytosis. […]
# MMP-9 = MMP-9 expression in macrophages by quantitative ICC; assay type: cell-based, mouse; conditions: quantitative ICC (FIG. 16F-16G)
# Experimental: as §1, with “overnight. Next, macrophages were either treated with 30 μg/ml GA (Copaxone®; TEVA Neuroscience), Brefeldin A (BFA; Sigma, 1X), or 10 μM Minocycline (Sigma) for the duration of 1, 3, or 24 h, or not treated (control group).” for “overnight.”
# Next, MMP-9 expression and OPN proteolytic fragments were analyzed. […]
substance,measurement,setting,value
glatiramer acetate [GA],reduction of iNOS production,iNOS,28%
same,increase of MMP-9 expression in macrophages,MMP-9,2.7 fold
